For 90 compounds, melting point results are on record in a melting point compilation (Tetko et al.; mined from patent text by program, amines drawn as free bases though some values may be those of a salt).

For `COc1ccc(CC(=O)Nc2c(C)c(C)c3c(c2C)[C@@H](c2ccc(C)cc2)C(C)(C)O3)cc1`, the melting point lay within 166 to 167 °C. Then `O=c1c2ccccc2nnn1CCN1CC=C(c2c[nH]c3ccccc23)CC1`, with 230 °C.

Compound `Cc1cc2ncn(Cc3ccc(N)cc3)c2cc1C` had a melting point of 238 to 239 °C.

Turning to `CC(=O)c1c[nH]c2nccc(OCC3CCCCC3)c12`, the melting point was > 210 °C. Then `CCNC(=NC(=Nc1ccccc1)N1CCOCC1)C(C)C`, with 155 to 158 °C; and `COC(=O)c1cnn(C)c1S(=O)(=O)NC(=O)Nc1nc(C)cc(OC)n1`, with 183 to 184 °C. Take `CCS(=O)(=O)c1nn(-c2ccccc2)c(=O)c2c(N)scc12`: the melting point is 190 to 191 °C. Then `O=C(NC1CCCCC1)c1c(O)c2cc(F)ccc2n(Cc2ccccc2)c1=O`, with 130 to 134 °C; and `CCC(=NOc1ccc(Cl)cc1)c1cc(Cl)ccc1NS(=O)(=O)C(F)(F)F`, with 87 to 88 °C; and `CCOC(=O)c1cc2c(F)ccc(Br)c2s1`, with 73 to 74 °C. Then `COc1cc(C(=O)N2CCC(CCN3CCCN(c4nc5ccccc5n4CCCC(C)=O)CC3)(c3ccccc3)C2)cc(OC)c1OC` (stereo not given), with 95 to 112 °C. In the case of `CN1c2ccncc2NC(CCc2ccccc2)c2cccn21` (stereo not given), the melting point fell in the range of 92 to 94 °C. On to `O=C(O)c1ccc(C=Cc2ccc(-c3cc4ccccc4o3)cc2)cc1`, for which the melting point lay within 348 to 349 °C. Then `O=C1c2[nH]c3cc(Cl)ccc3c2Oc2ccccc2N1Cc1ccccc1`, with 259 to 261 °C. Then `CCS(=O)(=O)CCc1ccc(C(=O)c2ccc(Cl)cc2)cc1`, with 117 to 118 °C; and `Cc1nc(N2CCN(Cc3ccc(OC(F)(F)F)cc3)C2=O)sc1C(=O)NCCC1CC1`, with 195 to 196 °C; and `CCc1cn(C2CC(O)C(CN(C)Cc3ccccc3)O2)c(=O)[nH]c1=O` (stereo not given), with 135 to 137 °C. The compound `CCN(CC)Cc1nc(-c2ncn3c2[C@@H]2CCN2C(=O)c2ccccc2-3)no1` showed a melting point of 209 to 211 °C. Then `CCOC(=O)c1ncc2[nH]c3cccc(Oc4ccc(Cl)cn4)c3c2c1COC`, with 156 to 158 °C; and `CCCCOC(=O)NCCc1ccc(OCC(O)CNC(C)C)nc1` (stereo not given), with 93 to 95 °C. Then `N#Cc1ccc(N(Cc2ccc(OCc3ccccc3)cc2)n2cnnc2)cc1-c1ccoc1`, with 155 to 156 °C. Then `COC(=O)CCc1c(O)ncc2cc(OC)c(OC)cc12`, with 178 to 180 °C; and `NC(=O)c1cc(O)c(O)c([N+](=O)[O-])c1`, with 235 to 236 °C; and `COc1c(C)c(N2CCN(c3ccc(F)cc3)CC2)c(C)c2c1OC(C)(C)C2`, with 137 to 139 °C. With `COc1ccc(-c2cnc(N)c(Br)n2)cc1`, the melting point lay in the range of 166 to 170 °C. Then `C=CCN1C(=S)N(c2cccc(Oc3ccccc3)c2)C(=O)C1C` (stereo not given), with 88 °C; and `c1ccc(OCCSCc2nnc(-c3ccc(OCCCCN4CCCC4)cc3)o2)cc1`, with 45 °C.

In turn, `COC(C)(CC(=O)NC12CC3CC(CC(C3)C1)C2)OC` showed a melting point of 140 °C. Under `CC(C)(C)CNC(=NC#N)Nc1cccnc1` stands 214 to 215 °C. Then `N#Cc1c(Cl)nc2cscc2c1Cl`, with 228 °C; and `Cc1c(-c2ccccc2)oc2c(C(=O)NCCCCl)cccc2c1=O`, with 193 to 194 °C; and `Cc1oc2cccc(OCC#N)c2c1C`, with 50 to 52 °C. Then `CCn1nc2c(N)nc3cc(OS(=O)(=O)C(F)(F)F)ccc3c2c1CCc1ccccc1`, with 178 to 179 °C; and `NC(=S)c1cn(COCCO)c2ncnc(N)c12`, with 186 to 188 °C; and `COC(=O)N1Cc2cc(OC)ccc2C(Cc2c(Cl)cncc2Cl)=N1`, with 184 to 186 °C. In turn, `CCCc1nc2c(N)nc3ccccc3c2n1CC1(O)CCOCC1` registered a melting point of 231 to 233 °C. Under `CC(C)Oc1cc(-n2nc(C(C)(C)C)oc2=O)ccc1F` stands 72.5 to 74 °C. Under `CCc1cc(N(C=O)c2ccccc2)cc(CC)c1N(C(N)=S)C(C)(C)C` stands 160 to 162 °C; under `COC(=O)Nc1cc(F)ccc1C(=O)O`, 162 °C. `Cc1c(SCCCSCCn2c([N+](=O)[O-])cnc2C)ccnc1CNc1cnc2ccccc2c1` registered a melting point of 133 to 135 °C. Then `CC[C@H](C)[C@H](OCc1ccccc1)[C@@H]1[C@H]([N+](=O)[O-])[C@H](c2ccccc2)N[C@]1(C)C(=O)NCC(=O)O`, with 89 to 90 °C. Then `COC(=O)Nc1cccc(C)c1COc1cccn2c(C)c(C)nc12`, with 176 to 177 °C; and `CCOC(=O)NC(C)Cn1cc(-c2ccccc2)c2ccccc2c1=O` (stereo not given), with 182 °C. Consider `O[C@@H]1CCc2cc(F)c(F)cc2C1`, for which the melting point was in the range of 88 to 92 °C. Then `CC(C)(C)OC(=O)NC1CCC(C(=O)N2CCC(c3[nH]nc4c3C(=O)c3c(NC(=O)NN5CCOCC5)cccc3-4)CC2)CC1` (stereo not given), with 178 to 180 °C; and `CN(C)CCCNC(=O)N1C(=O)Cc2cc(Cl)ccc21`, with 84 to 85 °C; and `O=C(O)/C=C/c1ccc(OCCN2CCOCC2)cc1`, with 228 °C. Under `COc1ccc(-c2nc(C3=CCN(C)CC3)sc2-c2ccc(OC)cc2)cc1` stands 131 to 132 °C. Then `N[C@@H](Cc1ccccc1)C(=O)N1CCC[C@H]1C(=O)OCc1ccccc1`, with 120 to 121 °C. For the compound `CCN(CC)S(=O)(=O)c1ccc(N2N=C(C)C(=CNc3ccccc3OC)C2=O)cc1`, the melting point was 191 °C. Under `CC(=O)OCC1CCCN(C(=O)c2ccc(NC(=O)c3ccccc3C)cc2)c2ccccc21` (stereo not given) stands 155 to 156 °C; under `NC(=O)c1nn(-c2ccccc2)c2ccccc12`, 149 °C; under `COC(=O)C(CC1(C)C(=O)Nc2ccccc21)NC(=O)c1ccc(Cl)cc1` (stereo not given), 201 to 202 °C. With `CC(=O)NC[C@H]1CN(c2ccc(N3CCNC(=O)CC3)c(F)c2)C(=O)O1`, the melting point was 140 to 146 °C. Then `O=C(NC1CC1)N1CCc2[nH]cnc2C1`, with 215 °C.

`COC(=O)c1ccc2cc(CO)ccc2c1`: the melting point fell in the range of 120 to 121 °C. Under `COc1ccc(S(=O)(=O)N2c3ccc(Br)cc3-c3ccccc3C2C(C)(C)C)cc1` (stereo not given) stands 195 to 198 °C.

For `C#CCOc1nsc(-c2ccccc2)n1`, the melting point came to 66.9 °C. Compound `Cc1nc(-c2ccccc2)cc(=O)[nH]1` gave a melting point of 238 to 240 °C. Under `C=C(C)C(=O)NCCCNC(=O)OC(C)(C)C` stands 85.8 °C. Under `CCCC1=C(C#N)S(=O)(=O)c2ccc(C(F)(F)F)cc2N1` stands 200 °C; under `CCOC(=O)CC1C(=O)N(CC(C)(C)C)c2ccc(Cl)cc2N(c2ccccc2Cl)C1=O` (stereo not given), 152 to 153 °C; under `CCc1nc2c(OCc3ccccc3)cc(C(=O)N(C)C)cc2n1C`, 104 to 108 °C. Under `CC1CC(=O)NN=C1c1ccc(N2CCC(C(=O)O)CC2)c([N+](=O)[O-])c1` (stereo not given) stands 214 °C; under `CC1CCCN1CCCN1CCN(CCCN2CCCC2C)C1=C(C#N)C#N` (stereo not given), 89 to 93 °C; under `Cc1cc(Oc2c(Cl)cc(C(F)(F)F)cc2Cl)nn1C(=O)NOC(C)(C)C`, 92 to 94 °C. `CC(=O)Nc1ccc(Nc2c(NCc3ccccc3)cc(C(=O)O)cc2S(=O)(=O)Nc2ccccc2NC(C)=O)cc1` gave a melting point of 268 °C. Then `COC(=O)c1ccc(Cl)cc1OCC#N`, with 73 to 76 °C; and `CSc1ccc2ccc(Br)cc2c1`, with 80 to 81 °C. As for `COc1ccc(C(C)(C)C)cc1NC(=O)Nc1ccc(-c2cnc3c(c2)NC(=O)CO3)c2ccccc12`, the melting point is > 200 °C. `Cc1c[nH]c(=O)n(CCCCl)c1=O`: the melting point was in the range of 117 to 121 °C. In turn, `CC1(C)CCC(C)(C)c2cc3c(cc21)C(C)(C)CCC3(C)C` came in with a melting point of 218 to 221 °C.

The compound `CC1=NC(=CC(=CN(C)C)c2ccc(C)cc2[N+](=O)[O-])C(=O)O1` registered a melting point of 200 to 201 °C. The compound `CC(=O)C(C(C)=O)c1ccccc1` gave a melting point of 40 to 52 °C. Then `CC(C)OC(=Cn1cnnn1)c1ccc(Cl)cc1Cl`, with 82 °C; and `C=C(C)C(=O)OCCCc1cc(CCCOC(=O)C(=C)C)c2oc(=O)c(-c3ccc(OC(=O)C(=C)C)cc3)cc2c1`, with 49 °C; and `COc1ccc(-c2cc(C(F)(F)F)n(C)c2-c2ccc(OC)cc2)cc1`, with 125 to 126 °C. Then `CC(C)(C)OC(=O)Nc1cc(Sc2ccc3c(C(=O)O)cccc3c2)ncn1`, with 208 to 209 °C. Compound `C=C1CCC2C3CCC4CC(O)CCC4(C)C3C(N)CC12C` (stereo not given) had a melting point of 144 to 149 °C. Then `O=C(Nc1ccc(C(CC2CCCC2)C(=O)O)cc1)c1cccnc1` (stereo not given), with 160 to 163 °C; and `Cc1c(C=NO)c2ccccc2n1-c1ccc(O)c(F)c1`, with 182 to 184 °C; and `O=C(Nc1ccc2[nH]c(=O)oc2c1)C(=O)N1CCC(Cc2ccc(O)cc2)CC1`, with 235 to 239 °C. For `O=C1C=C2CCCCC2N1c1ccc(O)cc1` (stereo not given), the melting point stood at 210 °C. The compound `CCC1N=C(c2ccccc2Cl)c2cc(CC(=O)OC)sc2NC1=S` (stereo not given) yielded a melting point of 199 to 200 °C. Then `O=c1c(-c2ccc(F)cc2)coc2c(O)c(O)ccc12`, with 289 °C. Then `O=C(O)c1cn(-c2ccc(F)cc2F)c2cc(Cl)c(F)cc2c1=O`, with 90 to 92 °C.

As for `CCOC(=O)NNc1ccc(-c2cccc(C(F)(F)F)c2)nn1`, the melting point was in the range of 168 to 170 °C. Then `Cc1ccc(C(=S)c2cc(Cl)cc3c2NC(=O)C3)cc1`, with 179 to 181 °C; and `CCC1(c2ccc(Cl)cc2)OCc2c1cnc(C)c2O` (stereo not given), with 215 °C. Under `O=C(O)Cc1c(C(=O)O)c2cc(Oc3ccc(C(F)(F)F)cc3)ccc2n1-c1ccc(C2CCNCC2)cc1` stands 256 to 258 °C.
